# Laboratory results reported in patent US20250360160A1, “NEW MEDICAL USE OF TAFOXIPARIN” (DILAFOR AB, priority 2022, published 2025).
# Tested on: term pregnant, nulliparous women with an unripe cervix
# Assay: Clinical phase II trial PPL17 (Parts A and B), subcutaneous tafoxiparin vs placebo
# Type: in vivo, human
# Conditions: for proportion of women achieving spontaneous onset of labor: placebo 28.7%, FIG. 1; for Labor induced, number of subjects: onset of labor with intervention; for Labor induced with PGE-1, percent of subjects: placebo 10.2%; for Labor induced with amniotomy, percent of subjects: placebo 56.8%; for Labor induction with Balloon catheter, percent of subjects: placebo 58.0%; for Labor induced, percent of subjects: placebo 70.5%
# Experimental: A clinical phase II trial is performed as a randomized, double-blind, placebo-controlled, parallel-group proof of concept study (Part A) with a conditional dose finding follow up study (Part B) to evaluate the efficacy, safety, tolerability and dose response of subcutaneously administered tafoxiparin as a supplement to induction therapy in term pregnant, nulliparous women with an unripe cervix. The study is performed in Sweden and Finland (PPL17), and an EMA (European Medicines Agency) description of the study can be found on the EU Clinical Trials Register web (www.clinicaltrialsregister.eu/ctr-search/search?query=PPL17).
# A total of 170 term pregnant women are randomized to receive either 300 mg of tafoxiparin, or corresponding placebo (vehicle), administered subcutaneously every 24±3 hours and up to a total of 7 doses, or until partus (Part A).
# In the dose finding follow up study (Part B), a total of 164 term pregnant women are randomized to receive either 75 or 150 mg of tafoxiparin administered subcutaneously every 24±3 hours […] and up to a total of 7 doses, or until partus.
# To assess the efficacy of tafoxiparin on cervical ripening/cervical ripening rate, during and up to the first seven days of treatment, measured by Bishop score. All women must be examined to check the cervical state before enrollment.
# Time from start of treatment to increase in Bishop score of ≥2 points or spontaneous onset of labor, whichever comes first. Time from start of treatment to increase in Bishop score of ≥3 points or spontaneous onset of labor, whichever comes first. Time from start of treatment to increase in Bishop score of ≥4 points or spontaneous onset of labor, whichever comes first.
# Cervical ripening as measured by change from baseline to end of treatment in Bishop Score. Time from onset of labor to partus, where onset of labor is defined as last record of 4 cm cervical dilatation visualized in the partogram and progress of labor, or last record of 4 cm of cervical dilatation in combination with amniotomy and intravenous administration oxytocin.
# Proportion of women with spontaneous onset of labor (Response group I).
# Tafoxiparin/Placebo is supplied by Dilafor AB to the site as kits designed to constitute 300 mg of tafoxiparin or placebo for daily administration. Apart from the active substance, each ml of study drug will constitute 0.015 M phosphate buffer. The study medication kit for each patient will contain 8 doses consisting of 2 vials containing a minimum extractable volume of 1.6 ml of 150 mg/ml of tafoxiparin or placebo. One dose is a reserve dose in case a dose is rendered unusable. The investigational product should be administered subcutaneously every 24±3hours by the site staff for up to 7 doses, or until partus. At each dosing time 1.0 ml of the drug will be extracted from each of the 2 vials and injected as separate s.c. injections in the abdominal or hip region.
# Tafoxiparin/Placebo is supplied by Dilafor AB to the site as kits designed to constitute 75 or 150 mg of tafoxiparin for daily administration. Apart from the active substance, each ml of study drug will constitute 0.015 M phosphate buffer. The study medication kit for each patient will contain 8 doses consisting of 2 vials for each injection occasion containing a minimum extractable volume of 1.6 ml of 150 mg/ml of tafoxiparin or placebo. For subjects receiving 75 mg of tafoxiparin, one vial will contain active substance and one containing placebo. For subjects receiving 150 mg of tafoxiparin, both vials will contain active substance. One dose is a reserve dose in case a dose is rendered unusable. The investigational product should be administered subcutaneously every 24±3 hours by the site staff for up to 7 doses, or until partus. At each dosing time, 0.5 ml of the drug will be extracted from each of the 2 vials and injected as separate s.c. injections in the abdominal or hip region. […]
# [1] = 75 mg, n = 83, listed as tafoxiparin
substance,measurement,setting,value
tafoxiparin,proportion of women achieving spontaneous onset of labor,"75 mg daily s.c., of 82 women, p 0.102",40.2%
same,number of subjects (women) that reach spontaneous onset of labor,"75 mg, Study day 1, n=33",0
same,percent of subjects (women) that reach spontaneous onset of labor,"75 mg, Study day 1, n=33",(0%)
same,number of subjects (women) that reach spontaneous onset of labor,"75 mg, Study day 2, n=33",3
same,percent of subjects (women) that reach spontaneous onset of labor,"75 mg, Study day 2, n=33",(9%)
same,number of subjects (women) that reach spontaneous onset of labor,"75 mg, Study day 3, n=33",6
same,percent of subjects (women) that reach spontaneous onset of labor,"75 mg, Study day 3, n=33",(18%)
same,number of subjects (women) that reach spontaneous onset of labor,"75 mg, Study day 4, n=33",11
same,percent of subjects (women) that reach spontaneous onset of labor,"75 mg, Study day 4, n=33",(33%)
same,number of subjects (women) that reach spontaneous onset of labor,"75 mg, Study day 5, n=33",22
same,percent of subjects (women) that reach spontaneous onset of labor,"75 mg, Study day 5, n=33",(67%)
same,number of subjects (women) that reach spontaneous onset of labor,"75 mg, Study day 6, n=33",25
same,percent of subjects (women) that reach spontaneous onset of labor,"75 mg, Study day 6, n=33",(76%)
same,number of subjects (women) that reach spontaneous onset of labor,"75 mg, Study day 7, n=33",32
same,percent of subjects (women) that reach spontaneous onset of labor,"75 mg, Study day 7, n=33",(97%)
same,number of subjects (women) that reach spontaneous onset of labor,"75 mg, Study day 8, n=33",33
same,percent of subjects (women) that reach spontaneous onset of labor,"75 mg, Study day 8, n=33",(100%)
same,"Fetal distress as indication for operative delivery (ODFD), number of patients","75 mg, n = 83",16
same,"Labor induced with PGE-1, number of subjects","75 mg, n = 83",7
same,"Labor induced with amniotomy, number of subjects","75 mg, n = 83",46
same,"Labor induced with oxytocin, number of subjects","75 mg, n = 83",34
same,"Labor induction with Balloon catheter, number of subjects","75 mg, n = 83",35
same,"Labor induced, number of subjects","75 mg, n = 83",48
same,"Labor induced with PGE-1, percent of subjects","75 mg, n = 83",(8.4%)
same,"Labor induced with PGE-1, percent of subjects",[1],8.4%
same,"Fetal distress as indication for operative delivery (ODFD), percent of patients","75 mg, n = 83, placebo 22.7%",19.3%
same,Percent of patients with operative delivery,"75 mg, n = 83, placebo 45.5%",38.6%
same,"Labor induced with oxytocin, percent of subjects","75 mg, n = 83, placebo 54.5%",(41.0%)
same,"Labor induced with oxytocin, percent of subjects","75 mg, n = 83, placebo 54.5%, listed as tafoxiparin",41.0%
same,"Labor induced with amniotomy, percent of subjects","75 mg, n = 83",(55.4%)
same,"Labor induced with amniotomy, percent of subjects",[1],55.4%
same,"Labor induction with Balloon catheter, percent of subjects","75 mg, n = 83",(42.2%)
same,"Labor induction with Balloon catheter, percent of subjects",[1],42.2%
same,"Labor induced, percent of subjects","75 mg, n = 83",(57.8%)
same,"Labor induced, percent of subjects",[1],57.8%
same,number of women reaching spontaneous onset of labor with uncomplicated delivery,"75 mg, of 29 women",22 women
same,proportion of women reaching spontaneous onset of labor with uncomplicated delivery,"75 mg, of 29 women, placebo 54.5%",75.9%
same,number of women needing instrumental delivery or caesarian section to reach partus,"75 mg, of 33 women",11 women
same,number reaching partus by vaginal delivery with no need for instrumental delivery nor caesarian section,"75 mg, of 33 women",22 women
same,number of women achieving spontaneous onset of labor,"75 mg, of 82 women",33 women
same,number of women needing instrumental delivery,"75 mg, spontaneous onset of labor, of 29 women",7 women
same,proportion reaching partus by vaginal delivery with no need for instrumental delivery nor caesarian section,"75 mg, women with spontaneous onset of labor, of 33, placebo 48%, FIG. 5",66.7%
same,proportion of women needing instrumental delivery or caesarian section to reach partus,"75 mg, women with spontaneous onset of labor, of 33, placebo 52%, FIG. 5",33.3%
same,proportion of women needing instrumental delivery,"75 mg, women with spontaneous onset of labor, vaginal mode of partus, of 29, p=0.181, placebo 45.5%, FIG. 4",24.1%
same,proportion of women achieving spontaneous onset of labor,"150 mg daily s.c., of 85 women, p 0.039",42.4%
same,number of subjects (women) that reach spontaneous onset of labor,"150 mg, Study day 1, n=36",0
same,percent of subjects (women) that reach spontaneous onset of labor,"150 mg, Study day 1, n=36",(0%)
same,number of subjects (women) that reach spontaneous onset of labor,"150 mg, Study day 2, n=36",4
same,percent of subjects (women) that reach spontaneous onset of labor,"150 mg, Study day 2, n=36",(11%)
same,number of subjects (women) that reach spontaneous onset of labor,"150 mg, Study day 3, n=36",15
same,percent of subjects (women) that reach spontaneous onset of labor,"150 mg, Study day 3, n=36",(42%)
same,number of subjects (women) that reach spontaneous onset of labor,"150 mg, Study day 4, n=36",19
same,percent of subjects (women) that reach spontaneous onset of labor,"150 mg, Study day 4, n=36",(53%)
same,number of subjects (women) that reach spontaneous onset of labor,"150 mg, Study day 5, n=36",26
same,percent of subjects (women) that reach spontaneous onset of labor,"150 mg, Study day 5, n=36",(72%)
same,number of subjects (women) that reach spontaneous onset of labor,"150 mg, Study day 6, n=36",30
same,percent of subjects (women) that reach spontaneous onset of labor,"150 mg, Study day 6, n=36",(83%)
same,number of subjects (women) that reach spontaneous onset of labor,"150 mg, Study day 7, n=36",34
same,percent of subjects (women) that reach spontaneous onset of labor,"150 mg, Study day 7, n=36",(94%)
same,number of subjects (women) that reach spontaneous onset of labor,"150 mg, Study day 8, n=36",35
same,percent of subjects (women) that reach spontaneous onset of labor,"150 mg, Study day 8, n=36",(97%)
same,number of subjects (women) that reach spontaneous onset of labor,"150 mg, Study day 9, n=36",36
same,percent of subjects (women) that reach spontaneous onset of labor,"150 mg, Study day 9, n=36",(100%)
same,"Fetal distress as indication for operative delivery (ODFD), number of patients","150 mg, n = 85",20
same,"Labor induced with PGE-1, number of subjects","150 mg, n = 85",7
same,"Labor induced with amniotomy, number of subjects","150 mg, n = 85",39
same,"Labor induced with oxytocin, number of subjects","150 mg, n = 85",38
same,"Labor induction with Balloon catheter, number of subjects","150 mg, n = 85",37
same,"Labor induced, number of subjects","150 mg, n = 85",48
same,"Labor induced with PGE-1, percent of subjects","150 mg, n = 85",(8.2%)
